# Source: patent US8758731B2, “Skin lightening by topical application of 1-hydroxyl 3,5-bis(4′hydroxyl styryl)benzene” (Johnson & Johnson Consumer Companies, Inc., priority 2012, dated 2014)
# Where “and” joins values, the source holds several entries; their conditions need not be identical. Equal values may be shown once.
# Key:
# Mushroom tyrosinase = test: Tyrosinase inhibition test (mushroom tyrosinase, L-dopa, OD 492 nm); assay type: biochemical; settings: 10 mM L-dopa, 37° C., 30 min, duplicate
# Procedure: Ultraviolet (UV) radiation from the sun is the most important external stimulus for melanin formation leading to skin darkening. Reducing melanin formation in the skin may be achieved by inhibiting multiple steps of the melanin biogenesis process. Tyrosinase is the key regulatory enzyme of melanogenesis. Agents that inhibit tyrosinase will reduce melanin synthesis.
# 1-Hydroxyl 3,5-bis(4′hydroxyl styryl)benzene (0.0001, 0.001, and 0.01% w/v) was tested for tyrosinase inhibition as follows.
# Mushroom tyrosinase samples (Sigma, T7755, 10 U/reaction) were treated with the samples of 1-hydroxyl 3,5-bis(4′hydroxyl styryl)benzene and control samples. Reaction was initiated by addition of 10 mM L-dopa (Research Organics, #2111D) at 37° C. Tyrosinase activity was measured by recording light absorption (optical density) at 492 nm after 30 min for both control samples (no exposure to test compound) and test samples that were exposed to the test compound.
# Percent Inhibition of Tyrosinase was related to the reduction in absorption at 492 nm (relative to the control) by the following formula: Percent Inhibition of Tyrosinase=[Tcontrol−Tsample/Tcontrol)]*100 where Tcontrol is the tyrosinase activity of the control and Tsample is the tyrosinase activity in the presence of test compound. Samples were tested in duplicate and Percent Inhibition of Tyrosinase was averaged and standard deviation was reported.
# [1] = test system: MelanoDerm skin epidermal equivalent tissues (NHEK and NHM); test: Inhibition of pigmentation in skin epidermal equivalent tissues (MatTek MelanoDerm MEL-300-B); assay type: cell-based, human; settings: measured day 9, vs vehicle-treated control
# Procedure: Skin epidermal equivalent tissues obtained from MatTek's MelanoDerm™ System were used as follows. MatTek's MelanoDerm™ System consists of normal, human-derived epidermal keratinocytes (NHEK) and melanocytes (NHM) which have been cultured to form a multilayered, highly differentiated model of the human epidermis. Specifically, MEL-300-B tissues, each 9 mm in diameter were used in the following tests.
# 1-Hydroxyl 3,5-bis(4′hydroxyl styryl)benzene and its piperazine salt were prepared in an appropriate vehicle and applied topically to the skin model daily. The experiment lasted for eight days. Measurement was taken on day 9.
# The Degree of Lightness for each skin model tissue (L-Value) was measured using a spectrophotometer (Konica Minolta CM-2600d). The ΔL (degree of lightness as compared to vehicle-treated control) for each test sample was calculated using following formula: ΔL=L-value of treated sample−L-value of control sample
# [2] = test system: murine melanoma B16(F10) cells; test: Inhibition of UV-induced Melanogenesis test; assay type: cell-based; settings: for Percent inhibition of UV-induced melanogenesis (mean ± SD): B16(F10), UVB 200 mJ/cm^2, 24 h post UVB
# Procedure: One or more samples of B16(F10) cells were prepared and each pre-treated with a test sample followed by UVB exposure as described below. Upon treatment, UVB stimulated melanogenesis in the cells and test compounds were evaluated based on their ability to inhibit or slow down the rate of melanogenesis. The cells were lysed for protein measurement at 595 nm and melanin content at 470 nm. The potency of the test compounds were determined by comparing the % inhibition achieved by the test compounds against the treated control.
# On a first day, murine melanoma B16(F10) cells were seeded in 60 mm plates with a density of ˜1 million cells per plate and incubated for […] at 37° C., 5% CO2. On day 2, the cells with a confluency rate of 90-100% were treated with test compound at a predetermined concentration (e.g. 25 mg/mL) for two hours (for test compound samples only) followed by exposure to UVB 200 mJ/cm^2 (for test samples and treated control). The cells were harvested on day 3 (24 h post UVB irradiation for test samples and treated control) and lysed in protein lysis buffer (50 mM Tris, pH 8, 2 mM EDTA, 150 mM NaCl, and 1% TRITON X 100—a nonionic surfactant purchased from BioRad Cat.#: 161-0407), and centrifuged.
# The resulting supernatant was mixed well with a protein dye assay (Bio-rad protein assay reagent) and a spectrophotometer (Molecular Devices VERSAmax) was used to determine the optical density (OD) of the sample at 595 nm, which was recorded as the “protein assay OD.” The cell pellet remaining after removal of the supernatant was dissolved in alkaline DMSO buffer, and the resulting solution was similarly tested using a spectrophotometer for melanin absorbance assay at 470 nm. The absorbance was recorded as the “melanin assay OD.”
# Control samples of B16(F10) murine melanoma cells were prepared and harvested as indicated above, but without addition of any test sample and without exposure to UVB (untreated control). Other samples were prepared and harvested as indicated above, but without addition of test sample and exposed to UVB as described below (treated control).
# Three samples each of the untreated control, treated control, and each test sample were made and the Melanin OD and Protein OD measured for each. The normalized melanin for each untreated control (3 samples), treated control (3 samples) and test sample (3 samples for each test compound) was calculated via the following equation: Normalized Melanin=melanin assay OD/protein assay OD. The averages of the Normalized Melanin of the untreated controls and treated controls were calculated (sum of the three calculated values/3).
# The Induction value of the Control (which can be thought of as the UV-induced increase in melanin, without the benefit of any test sample to reduce melanogensis) was determined by subtracting the average Normalized Melanin of untreated control from the average Normalized Melanin of treated control. Similarly, the Induction value of each test sample (which can be thought of as the amount of additional melanin over and above the baseline of the sample not treated with UV) was then calculated by subtracting average Normalized Melanin of untreated control from the Normalized Melanin of the test sample. The Percent Inhibition for each test sample was then calculated via the equation: Percent Inhibition=100×[(Induction value of Control−Induction value with Test Sample)/Induction value of Control].
# The average Percent Inhibition was calculated as the sum of the three resulting Inhibition % values for each test sample divided by three.
# [3] = test system: murine melanoma B16(F10) cells; test: Inhibition of UV-induced Melanogenesis test; assay type: cell-based; settings: 0.0001%; average of S1 and S2
# [4] = 0.5% topically daily for eight days
compound,measurement,setting,value
"Oc1ccc(/C=C/c2cc(O)cc(/C=C/c3ccc(O)cc3)c2)cc1 [1-Hydroxyl 3,5-bis(4′hydroxylstyryl)benzene]",Percent Inhibition of Tyrosinase activity (mean ± standard deviation),Mushroom tyrosinase; 0.0001% w/v test compound,3.3 ± 1.95%
same,Percent Inhibition of Tyrosinase activity (mean ± standard deviation),Mushroom tyrosinase; 0.001% w/v test compound,8.21 ± 1.27%
same,Percent Inhibition of Tyrosinase activity (mean ± standard deviation),Mushroom tyrosinase; 0.01% w/v test compound,11.84 ± 3.22%
same,Degree of Lightness (ΔL),[1]; [4],4.23 ± 0.64
same,Percent inhibition of UV-induced melanogenesis (mean ± SD),[2]; 0.00001% test compound,18.93 ± 5.92%
same,Percent inhibition of UV-induced melanogenesis (mean ± SD),[2]; 0.00005% test compound,33.27 ± 4.39%
same,Percent inhibition of UV-induced melanogenesis (mean ± SD),[2]; 0.0001% test compound,40.49 ± 2.04%
same,Induction value with Test sample,"[2]; 0.0001%, single test samples S1, S2, Normalized Melanin minus untreated control 0.122, listed as 1-hydroxyl 3,5-bis(4′hydroxyl styryl)benzene—Free Phenol",0.19 − 0.122 = 0.068 and 0.187 − 0.122 = 0.065
same,Normalized Melanin value (melanin assay OD/protein assay OD),"[2]; 0.0001%, single test samples S1, S2, listed as 1-hydroxyl 3,5-bis(4′hydroxyl styryl)benzene—Free Phenol",0.19 (S1) and 0.187 (S2)
same,Percent Inhibition for Test sample (Ave),[3],Ave = (39.05 + 41.93)/2 = 40.49%
"1-hydroxyl 3,5-bis(4′hydroxyl styryl)benzene - Piperazine salt",Percent Inhibition of Tyrosinase activity (mean ± standard deviation),Mushroom tyrosinase; 0.0001% w/v test compound,2.03 ± 3.94%
same,Percent Inhibition of Tyrosinase activity (mean ± standard deviation),Mushroom tyrosinase; 0.001% w/v test compound,11.52 ± 3.16%
same,Percent Inhibition of Tyrosinase activity (mean ± standard deviation),Mushroom tyrosinase; 0.01% w/v test compound,16.64 ± 2.76%
same,Degree of Lightness (ΔL),[1]; 0.1% topically daily for eight days,1.46 ± 0.71
same,Degree of Lightness (ΔL),[1]; 0.25% topically daily for eight days,2.83 ± 0.41
same,Degree of Lightness (ΔL),[1]; [4],4.60 ± 0.61
same,Percent inhibition of UV-induced melanogenesis (mean ± SD),[2]; 0.00001% test compound,13.93 ± 11.33%
same,Percent inhibition of UV-induced melanogenesis (mean ± SD),[2]; 0.00005% test compound,33.52 ± 1.54%
same,Percent inhibition of UV-induced melanogenesis (mean ± SD),[2]; 0.0001% test compound,55.70 ± 4.44%
